These results are taken from patent US11549123B2, “Plant EPSP synthases and methods of use” (PIONEER HI-BRED INTERNATIONAL, INC., priority 2015, dated 2023).

Usually Ki stands for a measure of affinity in units of concentration, obtained from inhibition or displacement. The low end stands for a stronger hold on the target, the high end for a looser hold on the target. As a reminder, the kcat is the maximal rate divided by the concentration of active sites. As usually defined, the Km is the substrate concentration at which the rate is half of its maximum.

For test [1], the target named is T1, Helianthus annuus EPSPS, native, SEQ ID NO:9 (Helianthus annuus, UniProt A0A251S0N3).
T1 sequence (A0A251S0N3 67-518): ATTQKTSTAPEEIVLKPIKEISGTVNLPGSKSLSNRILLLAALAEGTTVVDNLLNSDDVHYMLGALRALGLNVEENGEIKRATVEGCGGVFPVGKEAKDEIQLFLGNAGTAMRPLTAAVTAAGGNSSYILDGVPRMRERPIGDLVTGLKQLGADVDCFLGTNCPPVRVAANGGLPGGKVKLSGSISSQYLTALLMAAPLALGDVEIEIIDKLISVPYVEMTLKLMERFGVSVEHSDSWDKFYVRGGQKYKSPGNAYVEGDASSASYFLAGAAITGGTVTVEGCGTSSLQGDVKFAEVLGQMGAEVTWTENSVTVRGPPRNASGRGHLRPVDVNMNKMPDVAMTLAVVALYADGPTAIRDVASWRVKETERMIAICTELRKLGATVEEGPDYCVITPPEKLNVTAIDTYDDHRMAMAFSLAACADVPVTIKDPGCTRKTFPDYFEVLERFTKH
Put plainly: EPSPS substrate saturation kinetics, native sunflower. The class given is biochemical. The method, then: (§1) EPSPS activity was determined by quantifying the phosphate generated from the EPSPS reaction. Release of inorganic phosphate was coupled to reaction with 2-amino-6-mercapto-7-methylpurine ribonucleoside, catalyzed by purine-nucleoside phosphorylase (M R Webb, Proc. Natl. Acad. Sci. 89:4884-4887, 1992). The absorbance change that occurs was monitored at 360 nm, where the extinction is 11,200 M^−1 cm^−1, with a Spectramax plate reader (Molecular Devices). To determine kinetic parameters, the varied substrate was present at seven concentrations (the eighth being the blank, containing no substrate) ranging from 4 to 400 uM and the unvaried substrate present at saturation. Six microliters of 50-fold concentrated stock solutions of the varied substrate were placed in the wells of the 96-well assay plate and reactions were started with the addition of a mixture containing 25 mM Hepes, pH 7, 100 mM KCl, 0.3 mM 2-amino-6-mercapto-7-methylpurine ribonucleosde, 1 uM (1 unit/ml) purine-nucleoside phosphorylase (Sigma N8264) and 200 uM of the non-varied substrate. Reactions were monitored with a Spectramax plate reader. The Michaelis-Menten kinetics protocol of the Spectramax software was customized for the substrate concentrations used. The software returns values of KM and Vmax using the Lineweaver-Burke transformation of the Michaelis-Menten equation. To determine kcat, Vmax (uM/min) was divided by the enzyme concentration (uM). […] KI was then calculated from the following form of the Michaelis-Menten equation for competitive inhibition: KI=KM[I]/(KM app−KM) KM approximates the dissociation constant of the enzyme-substrate complex while kcat is the rate of conversion of substrate to product when the substrate concentration is saturating. kcat/KM is a widely accepted parameter for catalytic efficiency when substrate concentration is low (˜KM). […] The parameter kcat/KM×KI is used to quantify both catalytic efficiency and insensitivity and thus the overall fitness of the enzyme.
(§2) Native EPSPS amino acid sequences of rice (Oryza sativa) (SEQ ID NO:7), sorghum (Sorghum halepense) (SEQ ID NO:8), and sunflower (Helianthus annus) (SEQ ID NO:9) including the chloroplast transit peptide sequences were assembled and analyzed for mapping the corresponding amino acid mutations from the maize 868-H6. If complete EPSPS sequences were not available, appropriate adjustments were made based on sequence alignments and conserved residue mapping.
There is no complete sequence available for Helianthus annuus. […]
(§3) ChloroP Prediction Server (Emanuelsson, O. et al. 1999. Protein Sci. 8(5):978-84) was used to approximate the amino terminus of the mature EPSPS proteins. […] The synthetic genes were cloned into a plasmid vector and expressed, purified and analyzed as described in Example 1.

Test [2] concerns the target T2, Oryza sativa EPSPS, native, SEQ ID NO:7 (Oryza sativa, UniProt Q93VK6).
T2 sequence (Q93VK6 64-511): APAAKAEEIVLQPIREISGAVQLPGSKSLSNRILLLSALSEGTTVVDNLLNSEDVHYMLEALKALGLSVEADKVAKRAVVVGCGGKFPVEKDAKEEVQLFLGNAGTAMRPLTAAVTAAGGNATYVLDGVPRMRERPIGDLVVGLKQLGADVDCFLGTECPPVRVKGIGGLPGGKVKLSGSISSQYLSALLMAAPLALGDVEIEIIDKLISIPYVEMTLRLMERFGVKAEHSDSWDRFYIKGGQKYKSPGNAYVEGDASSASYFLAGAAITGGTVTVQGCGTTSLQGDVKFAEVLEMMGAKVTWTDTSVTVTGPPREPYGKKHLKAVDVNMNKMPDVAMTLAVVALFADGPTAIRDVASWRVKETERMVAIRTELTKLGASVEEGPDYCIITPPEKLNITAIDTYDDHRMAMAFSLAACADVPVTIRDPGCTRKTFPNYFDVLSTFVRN
Put plainly: EPSPS substrate saturation kinetics, native rice. It is filed as biochemical. The method, then:
as §1, §2, §3

For test [3], the target named is T3, Zea mays EPSPS variant P107L (Zea mays, UniProt O24566, P106L).
T3 sequence (O24566 with tags, fused parts or gaps P106L): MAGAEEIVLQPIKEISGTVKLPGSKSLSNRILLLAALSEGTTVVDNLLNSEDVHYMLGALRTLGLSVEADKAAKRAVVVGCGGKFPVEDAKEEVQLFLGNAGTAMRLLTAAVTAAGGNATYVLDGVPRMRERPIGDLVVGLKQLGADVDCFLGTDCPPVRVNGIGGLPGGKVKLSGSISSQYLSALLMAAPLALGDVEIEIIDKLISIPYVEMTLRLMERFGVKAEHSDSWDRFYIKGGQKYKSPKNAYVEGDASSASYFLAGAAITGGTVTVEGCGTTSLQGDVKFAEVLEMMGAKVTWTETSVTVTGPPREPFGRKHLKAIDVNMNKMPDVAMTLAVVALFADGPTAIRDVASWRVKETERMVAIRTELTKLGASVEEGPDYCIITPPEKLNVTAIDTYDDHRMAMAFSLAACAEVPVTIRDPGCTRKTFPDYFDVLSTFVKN
Nature of the test: EPSPS substrate saturation kinetics, P107L.

[4] abbreviates: PEP as substrate, glyphosate as inhibitor.

As for `O=C(O)CNCP(=O)(O)O` [glyphosate, N-phosphonomethylglycine], the inhibition constant (Ki) in test [1] was determined as 150 nM; in test [2], 100 nM; in test [3] (KI (glyphosate), competitive with PEP), 3600 nM; in test [3] (Ki, substrate saturation, Zm-P107L), 3050 nM. Further, the “(kcat/KM)*KI” value in test [1] (setting [4]) stood at 14; in test [2] (setting [4]) it was 18; in test [3] (setting [4]), 79; in test [3] (substrate saturation, Zm-P107L), 70.

In the case of `C=C(OP(=O)(O)O)C(=O)O` [PEP, phosphoenolpyruvate], the values for the kcat in test [1] (PEP varied), in test [2] (PEP varied) and in test [3] (PEP varied) were 29.52 s⁻¹, 30.97 s⁻¹ and 24.2 s⁻¹, respectively. For the same molecule, the Km in test [1] (read-out: KM (PEP), PEP varied) is 18.8 µM; in test [2] (read-out: KM (PEP), PEP varied), 12.6 µM. Besides, the kcat/KM in test [3] (PEP) is on record as 22.1 min^−1uM^−1.
